Measured values: US20220273759A1, “PHARMACEUTICAL ASSOCIATION FOR CONVERTING A NEOPLASTIC CELL INTO A NON-NEOPLASTIC CELL AND USES THEREOF” (HISTIDE AG, priority 2015, published 2022)
Values belong to the molecule of their own block, whether it stands above or below them.

What was measured:
[1] = test system: Smad1/5/8 signaling pathway; experiment: Growth factor receptor activation: western blot quantification of phospho-smad1/5/8; type: cell-based; details: Table 4; human osteosarcoma cells MG63; quantification of western blots of phospho-smad1/5/8
Protocol: After 24 hours of culture, cells were permeabilized (10% SDS, 25 mM NaCl, 10 nM pepstatin and 10 nM leupeptin in distilled water and loading buffer), boiled for 10 minutes and resolved by reducing PAGE (Invitrogen). Proteins were transferred onto nitrocellulose, blocked, and labeled with HRP-conjugated antibodies (Invitrogen). Integrin αv, α5, +3, α4, β1, β3, β5 and […] were blotted by treating the nitrocellulose with monoclonal anti-integrin (extracellular domain) αv, α5, +3, α4, β1, β3, β5 and β6 antibodies (Santa Cruz Biotechnology). Phosphor-Smad1/5/8 was blotted by treating the nitrocellulose with monoclonal anti-p-Smad1/5/8 (Santa Cruz Biotechnology). For all of the experiments the western blot was performed in triplicate, along with an additional blot for actin and coomassie blue staining to ensure constant protein load among samples.

[2] = test system: human osteosarcoma cells, MG63; experiment: Tumor cell recoding via quantification of pRB and p53 (immunofluorescence staining, ImageJ); type: cell-based
Protocol: The cells were first fixed for 20 min with 4% paraformaldehyde/PBS at 4° C. After fixation, the cells were permeabilized in PBS containing 1% Triton X-100 for 15 min. Protein immunofluorescent visualization was performed by first treating the cells with 1% (v/v) specific monoclonal antibodies for 1 hour at 37° C. Then the samples were incubated with Alexa Fluor® 568 or 647 (F(ab′)2 fragment of IgG(H+L)) during 30 min at room temperature. The cell nuclei were counterstained in 20 ng/mL DAPI for 10 min at room temperature.
For this type of quantification the freeware image analysis ImageJ® software was used. The raw image was first converted to an 8-bit file, and then the unsharp mask feature was used (settings 1:0.2) to remove the image background (rolling ball radius 10). After smoothing, the resulting image, which appears similar to the original photomicrograph but with minimal background, was then converted to a binary image by setting a threshold. Threshold values were determined empirically by selecting a setting, which gave the most accurate binary image for a subset of randomly selected photomicrographs. The cell area was determined by manual delineation on raw fluorescent images. Total contact area and mean contact area per cell were calculated by “analyse particules” in ImageJ®. A minimum of 50 cells per condition were analyzed.
Neoplastic cells (in this example osteosarcoma cells) were cultured on pharmaceutical associations comprising PET as a bioactive carrier and one of GFR-binding compounds of SEQ ID NO: 11 to 14, 24 to 26 and 51 to 63. A rapid (24 hours) decrease of the tumor markers was observed (FIG. 7). The adhesion checkpoint then activates the tumor suppressor proteins p53 and pRB. […]

growth factor receptors = experiment: cell-based or functional assay
[3] = Table 4, MG63, quantification of pRB
[4] = Table 5, MG63, quantification of pRB
[5] = Table 6, peptide in association with PET, MG63 cells

p-Smad1/5/8 (%) (growth factor receptors): 44%
Molecule: TQVKMRPVQVRKI [GFR-binding compound of SEQ ID NO: 92]

p-Smad1/5/8 (%) (growth factor receptors): 52%
Molecule: VPTGQSAISMLYL [GFR-binding compound of SEQ ID NO: 95]

p-Smad1/5/8 (%) (growth factor receptors): 37%
Molecule: ASAAPSSVPQALRSVKVAKV [GFR-binding compound of SEQ ID NO: 88]

p-Smad1/5/8 (%) (growth factor receptors): 78%
Molecule: NDEGLESVPTEESAISMLYL [GFR-binding compound of SEQ ID NO: 96]

p-Smad1/5/8 (%) (growth factor receptors): 41%
Molecule: ASAAPSSAPTALSATSVLYY [GFR-binding compound of SEQ ID NO: 82]

p-Smad1/5/8 (%) (growth factor receptors): 33%
Molecule: KVGKASSVPQKLEPLPIVYY [GFR-binding compound of SEQ ID NO: 84]

p-Smad1/5/8 (%) (growth factor receptors): 75%
Molecule: HVPKPSSAPTKLEPISILYL [GFR-binding compound of SEQ ID NO: 100]

p-Smad1/5/8 (%) (growth factor receptors): 39%
Molecule: SSVKSQPSRVHHSPISILFI [GFR-binding compound of SEQ ID NO: 97]

p-Smad1/5/8 (%) (growth factor receptors): 39%
Molecule: GIPEPSSTPTKMSPINMLYF [GFR-binding compound of SEQ ID NO: 94]

p-Smad1/5/8 (%) (growth factor receptors): 36%
Molecule: VSQDLRSVKVAKV [GFR-binding compound of SEQ ID NO: 89]

p-Smad1/5/8 (%) (growth factor receptors): 47%
Molecule: KIPKASSTPTELSPINMLYF [GFR-binding compound of SEQ ID NO: 93]

p-Smad1/5/8 (%) (growth factor receptors): 26%
Molecule: RNVQSRPVPTQLSPISVLYK [GFR-binding compound of SEQ ID NO: 86]

p-Smad1/5/8 (%) (growth factor receptors): 56%
Molecule: ASASPSSVPQDLRSVKVAKV [GFR-binding compound of SEQ ID NO: 90]

p-Smad1/5/8 (%) (growth factor receptors): 22%
Molecule: KASKASSVPQKLEPLPIVYY [GFR-binding compound of SEQ ID NO: 85]

p-Smad1/5/8 (%) (growth factor receptors): 35%
Molecule: TVPKPSSAPTQLRSVKVAKV [GFR-binding compound of SEQ ID NO: 83]

p-Smad1/5/8 (%) (growth factor receptors): 32%
Molecule: KIPKASSVPTELSPISVLYK [GFR-binding compound of SEQ ID NO: 87]

p-Smad1/5/8 (%) (growth factor receptors): 27%
Molecule: NDEGLESVPTEESSLSILFF [GFR-binding compound of SEQ ID NO: 80]

p-Smad1/5/8 (%) (growth factor receptors): 58%
Molecule: NDEGLESVPTEEEPLTILYY [GFR-binding compound of SEQ ID NO: 79]

p-Smad1/5/8 (%) (growth factor receptors): 34%
Molecule: RVPSTSSAPTKTSATSVLYY [GFR-binding compound of SEQ ID NO: 81]

p-Smad1/5/8 (%) (growth factor receptors): 55%
Molecule: NDEGLESVPTEERSVKVAKV [GFR-binding compound of SEQ ID NO: 91]

p-Smad1/5/8 (%) (growth factor receptors): 66%
Molecule: YVPKPSSAPTKLNAISVLYF [GFR-binding compound of SEQ ID NO: 99]

p-Smad1/5/8 (%) (growth factor receptors): 34%
Molecule: RNVQSRPTQVQLSPISILFI [GFR-binding compound of SEQ ID NO: 98]

The next lines start with the molecule.

Molecule: NDEGLESVPTEERSVKVAKV (Non-cyclic GFR-binding peptide) [SEQ ID NO: 91]
p-Smad1/5/8 (%) [1]: 55%
pRB (%) [2, 3]: 12%
pRB (%) [2, 4]: 12%

Molecule: SSVKSQPSRVHHKPLSMLYV (Non-cyclic GFR-binding peptide) [SEQ ID NO: 72]
p-Smad1/5/8 (%) [1]: 47%
pRB (%) [2, 3]: 19%
pRB (%) [2, 4]: 19%

Molecule: TVPKPSSAPTQLRSVKVAKV (Non-cyclic GFR-binding peptide) [SEQ ID NO: 83]
p-Smad1/5/8 (%) [1]: 35%
pRB (%) [2, 3]: 12%
pRB (%) [2, 4]: 12%

Molecule: ASAAPSSVPQALRSVKVAKV (Non-cyclic GFR-binding peptide) [SEQ ID NO: 88]
p-Smad1/5/8 (%) [1]: 37%
pRB (%) [2, 3]: 18%
pRB (%) [2, 4]: 18%

Molecule: RNVQSRPVPTQLSPISVLYK (Non-cyclic GFR-binding peptide) [SEQ ID NO: 86]
p-Smad1/5/8 (%) [1]: 26%
pRB (%) [2, 3]: 24%
pRB (%) [2, 4]: 24%

Molecule: KIPKASSVPTGGSNITVQIM (Non-cyclic GFR-binding peptide) [SEQ ID NO: 209]
P53 (%) [2, 5]: 45%
pRB (%) [2, 5]: 11%

Molecule: NDEGLESVPEDLSSLSVLFF (Non-cyclic GFR-binding peptide) [SEQ ID NO: 201]
P53 (%) [2, 5]: 29%
pRB (%) [2, 5]: 12%

Molecule: ASAAPSSAPTALSATSVLYY (Non-cyclic GFR-binding peptide) [SEQ ID NO: 82]
p-Smad1/5/8 (%) [1]: 41%
pRB (%) [2, 3]: 19%
pRB (%) [2, 4]: 19%

Molecule: VPTGQSAISMLYL (Non-cyclic GFR-binding peptide) [SEQ ID NO: 95]
p-Smad1/5/8 (%) [1]: 52%
pRB (%) [2, 3]: 17%
pRB (%) [2, 4]: 17%

Molecule: AASKASSVPQEEEPLPMVYY (Non-cyclic GFR-binding peptide) [SEQ ID NO: 207]
P53 (%) [2, 5]: 24%
pRB (%) [2, 5]: 17%

Molecule: GIPEPSSAPVDLKPLSTLYV (Non-cyclic GFR-binding peptide) [SEQ ID NO: 206]
P53 (%) [2, 5]: 32%
pRB (%) [2, 5]: 12%

Molecule: RVPSTSSVPTGQSAISTLYL (Non-cyclic GFR-binding peptide) [SEQ ID NO: 202]
P53 (%) [2, 5]: 25%
pRB (%) [2, 5]: 10%

Molecule: STPPTSSVPTELSPISTLYK (Non-cyclic GFR-binding peptide) [SEQ ID NO: 205]
P53 (%) [2, 5]: 41%
pRB (%) [2, 5]: 20%

Molecule: GIPEPSSAPTELSATSILYY (Non-cyclic GFR-binding peptide) [SEQ ID NO: 204]
P53 (%) [2, 5]: 33%
pRB (%) [2, 5]: 16%

Molecule: KIPKASSVSQKMEPLTMLYY (Non-cyclic GFR-binding peptide) [SEQ ID NO: 208]
P53 (%) [2, 5]: 30%
pRB (%) [2, 5]: 12%

Molecule: RVPSTSSAPTKMNAISMLYF (Non-cyclic GFR-binding peptide) [SEQ ID NO: 203]
P53 (%) [2, 5]: 31%
pRB (%) [2, 5]: 9%

Molecule: AVPKASSAPTKLEPISILYL [GFR-binding compound of SEQ ID NO: 70]
p-Smad1/5/8 (%) (growth factor receptors): 67%

Molecule: KIPKASSVPQELEPLPIVYY [GFR-binding compound of SEQ ID NO: 74]
p-Smad1/5/8 (%) (growth factor receptors): 44%

Molecule: YVPKPSSTPTKLSPINMLYF [GFR-binding compound of SEQ ID NO: 66]
p-Smad1/5/8 (%) (growth factor receptors): 38%

Molecule: ASASPSSVSQDLSSLSILFF [GFR-binding compound of SEQ ID NO: 68]
p-Smad1/5/8 (%) (growth factor receptors): 40%

Molecule: RNVQSRPTQVQLKPLSMLYV [GFR-binding compound of SEQ ID NO: 73]
p-Smad1/5/8 (%) (growth factor receptors): 48%

Molecule: GIPEPSSVPQKMEPLPIVYY [GFR-binding compound of SEQ ID NO: 75]
p-Smad1/5/8 (%) (growth factor receptors): 51%

Molecule: SSVKSQPSRVHHKPLSMLYV [GFR-binding compound of SEQ ID NO: 72]
p-Smad1/5/8 (%) (growth factor receptors): 47%

Molecule: VVPKPSSAPTQLEPISILYL [GFR-binding compound of SEQ ID NO: 69]
p-Smad1/5/8 (%) (growth factor receptors): 39%

Molecule: TKPTSTPTKLSPINMLYF [GFR-binding compound of SEQ ID NO: 65]
p-Smad1/5/8 (%) (growth factor receptors): 36%

Molecule: ASAAPSSVPQALEPLTILYY [GFR-binding compound of SEQ ID NO: 77]
p-Smad1/5/8 (%) (growth factor receptors): 55%

Molecule: ASAAPSSVPQALSSLSILFF [GFR-binding compound of SEQ ID NO: 67]
p-Smad1/5/8 (%) (growth factor receptors): 38%

Molecule: KVGKASSVPTKLEPISILYL [GFR-binding compound of SEQ ID NO: 71]
p-Smad1/5/8 (%) (growth factor receptors): 66%

Molecule: SIPKASSVPQELEPLPIVYY [GFR-binding compound of SEQ ID NO: 76]
p-Smad1/5/8 (%) (growth factor receptors): 54%

Molecule: ASASPSSVSQDLEPLTILYY [GFR-binding compound of SEQ ID NO: 78]
p-Smad1/5/8 (%) (growth factor receptors): 52%

Molecule: SIPKASSTPTELSPINMLYF [GFR-binding compound of SEQ ID NO: 64]
p-Smad1/5/8 (%) (growth factor receptors): 37%
